Results: patent US20230181430A1, “TOPICAL FORMULATIONS COMPRISING DUTASTERIDE FOR TREATING DERMATOLOGICAL DISORDERS INCLUDING MALE PATTERN BALDNESS” (XYON Health Inc., priority 2020, published 2023)
Values joined by “and” are separate entries in the source; they are usually repeats but may differ in a detail not shown here. Identical values can stand only once. Like-named read-outs stand apart in the source and are kept apart here.

Experiments:
[1] = In vitro skin permeation assessment of dutasteride (Franz cell); type: in vitro ADME; settings: 1-24 hours, human epidermis
Method: To investigate the impact of the siliconic components in dutasteride-loaded formulations, in vitro tests were conducted to measure the permeation through and retention into skin epidermis of a 1% dutasteride-loaded silicone gel formulation made according to the process of Example 2. As a comparison, a gel spray of dutasteride without silicone (PEG-8 Dimethicone or Poly(methylsilsesquioxane)) was also prepared. An original Franz-type diffusion cell system was modified to accommodate widened vertical columns and removal of the bowl shape. The diffusion area was 0.636 cm^2 with a receiver capacity of approximately 3.0 mL. The receiver volume for each cell was individually calibrated.
Human epidermis samples were prepared according to standard protocols. The samples were obtained from abdominal skin of two 30-50 year old Eurasiatic donors. The samples were used as a membrane between the two chambers in the Franz cells. […]
Before being mounted on the Franz cell, each epidermal sheet was visually inspected to avoid any possible defects. Additionally, the electrical resistance of isolated epidermis was measured to ensure the integrity of the barrier membrane. […]
The prepared Franz cells were stirred continuously using a magnetic stir bar at a temperature of 37° C. […] After standing for 24 hours, the supernatant was centrifuged at 3000 rpm for 10 minutes at 23° C. and analyzed by HPLC. […]

serum DHT = settings: cited from earlier work; for reduction of serum DHT levels: oral administration / oral formulations
[2] = experimental; cited from earlier work
[3] = in vivo; cited from earlier work
[4] = cited from earlier work
[5] = after oral administration; cited from earlier work

SMILES | dutasteride in the receiver compartment [1] | suppression of DHT production (serum DHT; after sustained oral administration) | logP [2] | volume of distribution [3] [L] | plasma protein binding [4] [%] | reduction of serum DHT levels (serum DHT) | reduction of serum DHT levels (serum DHT; listed as Finasteride) | systemic clearance (CL) [5] [mL/min]
C[C@]12C=CC(=O)N[C@@H]1CC[C@@H]1[C@@H]2CC[C@]2(C)[C@@H](C(=O)Nc3cc(C(F)(F)F)ccc3C(F)(F)F)CC[C@@H]12 [dutasteride, Dutasteride] | never detected | up to 99% | 6.8 | 300 to 500 | 99 |  |  | 
CC(C)(C)NC(=O)[C@H]1CC[C@H]2[C@@H]3CC[C@H]4NC(=O)C=C[C@]4(C)[C@H]3CC[C@]12C [finasteride, Finasteride] |  |  | 3.03 | 44 to 96 |  | 60 to 70% and 60-70% | 65-70% | 165
